Experimental data from the supplement of paper PMC10307832.

Legend:
Assay in all cases: relative viability (nuclei count vs DMSO), 5 days (fraction); higher = more cells survive
[1] = system: 201T
Summary of the method: (§1)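 Lung cancer cell lines in 1536-well plates got either a single drug or a fixed anchor-drug dose together with five library-drug doses (not always all listed) in √10 steps, by pin tool, on the day after seeding. Nuclei were counted after 5 days, and relative viability is the treated-to-vehicle ratio of nuclei counts. Values are medians of duplicate plates.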

[2] = system: BEN
Summary of the method: as §1

[3] = system: CAL-12T
Summary of the method: as §1

[4] = system: HCC-827
Summary of the method: as §1

[5] = system: LCLC-103H
Summary of the method: as §1

[6] = system: LCLC-97TM1
Summary of the method: as §1

[7] = system: LXF-289
Summary of the method: as §1

[8] = system: NCI-H1395
Summary of the method: as §1

[9] = system: NCI-H1437
Summary of the method: as §1

[10] = system: NCI-H1650
Summary of the method: as §1

[11] = system: NCI-H1792
Summary of the method: as §1

[12] = system: NCI-H1793
Summary of the method: as §1

[13] = system: NCI-H1944
Summary of the method: as §1

[14] = system: NCI-H2087
Summary of the method: as §1

[15] = system: NCI-H2228
Summary of the method: as §1

[16] = system: NCI-H2405
Summary of the method: as §1

[17] = system: NCI-H3122
Summary of the method: as §1

[18] = system: NCI-H322M
Summary of the method: as §1

[19] = system: NCI-H647
Summary of the method: as §1

[20] = system: NCI-H727
Summary of the method: as §1

[21] = system: RERF-LC-KJ
Summary of the method: as §1

[22] = system: SK-LU-1
Summary of the method: as §1

## Nc1ccn([C@@H]2O[C@H](CO)[C@@H](O)[C@@H]2O)c(=O)n1 [Cytarabine] + O=C(c1cc(Cc2n[nH]c(=O)c3ccccc23)ccc1F)N1CCN(C(=O)C2CC2)CC1 [Olaparib] (partner 8 µM)
[1]; first compound 0.005 µM
  relative viability: 0.832
[1]; first compound 0.01581 µM
  relative viability: 0.877
[1]; first compound 0.05 µM
  relative viability: 0.914
[1]; first compound 0.1581 µM
  relative viability: 0.847
[1]; first compound 0.5 µM
  relative viability: 0.827
[2]; first compound 0.005 µM
  relative viability: 0.822
[2]; first compound 0.01581 µM
  relative viability: 0.703
[2]; first compound 0.05 µM
  relative viability: 0.637
[2]; first compound 0.1581 µM
  relative viability: 0.447
[2]; first compound 0.5 µM
  relative viability: 0.384
[3]; first compound 0.005 µM
  relative viability: 0.859
[3]; first compound 0.01581 µM
  relative viability: 0.68
[3]; first compound 0.05 µM
  relative viability: 0.537
[3]; first compound 0.1581 µM
  relative viability: 0.288
[3]; first compound 0.5 µM
  relative viability: 0.223
[4]; first compound 0.005 µM
  relative viability: 0.459
[4]; first compound 0.01581 µM
  relative viability: 0.367
[4]; first compound 0.05 µM
  relative viability: 0.0662
[4]; first compound 0.1581 µM
  relative viability: 0.159
[4]; first compound 0.5 µM
  relative viability: 0.189
[5]; first compound 0.005 µM
  relative viability: 0.717
[5]; first compound 0.01581 µM
  relative viability: 0.725
[5]; first compound 0.05 µM
  relative viability: 0.906
[5]; first compound 0.1581 µM
  relative viability: 0.803
[5]; first compound 0.5 µM
  relative viability: 0.792
[6]; first compound 0.005 µM
  relative viability: 0.34
[6]; first compound 0.01581 µM
  relative viability: 0.333
[6]; first compound 0.05 µM
  relative viability: 0.183
[6]; first compound 0.1581 µM
  relative viability: 0.126
[6]; first compound 0.5 µM
  relative viability: 0.106
[7]; first compound 0.005 µM
  relative viability: 0.904
[7]; first compound 0.01581 µM
  relative viability: 0.829
[7]; first compound 0.05 µM
  relative viability: 0.709
[7]; first compound 0.1581 µM
  relative viability: 0.285
[7]; first compound 0.5 µM
  relative viability: 0.232
[8]; first compound 0.005 µM
  relative viability: 0.463
[8]; first compound 0.01581 µM
  relative viability: 0.432
[8]; first compound 0.05 µM
  relative viability: 0.396
[8]; first compound 0.1581 µM
  relative viability: 0.41
[8]; first compound 0.5 µM
  relative viability: 0.335
[9]; first compound 0.005 µM
  relative viability: 0.529
[9]; first compound 0.01581 µM
  relative viability: 0.51
[9]; first compound 0.05 µM
  relative viability: 0.469
[9]; first compound 0.1581 µM
  relative viability: 0.283
[9]; first compound 0.5 µM
  relative viability: 0.234
[10]; first compound 0.005 µM
  relative viability: 0.638
[10]; first compound 0.01581 µM
  relative viability: 0.772
[10]; first compound 0.05 µM
  relative viability: 0.472
[10]; first compound 0.1581 µM
  relative viability: 0.268
[10]; first compound 0.5 µM
  relative viability: 0.168
[11]; first compound 0.01581 µM
  relative viability: 0.399
[11]; first compound 0.05 µM
  relative viability: 0.248
[11]; first compound 0.1581 µM
  relative viability: 0.167
[11]; first compound 0.5 µM
  relative viability: 0.0776
[12]; first compound 0.005 µM
  relative viability: 0.989
[12]; first compound 0.01581 µM
  relative viability: 0.847
[12]; first compound 0.05 µM
  relative viability: 0.887
[12]; first compound 0.1581 µM
  relative viability: 0.359
[12]; first compound 0.5 µM
  relative viability: 0.244
[13]; first compound 0.005 µM
  relative viability: 0.438
[13]; first compound 0.01581 µM
  relative viability: 0.33
[13]; first compound 0.05 µM
  relative viability: 0.322
[13]; first compound 0.1581 µM
  relative viability: 0.204
[13]; first compound 0.5 µM
  relative viability: 0.156
[14]; first compound 0.005 µM
  relative viability: 0.413
[14]; first compound 0.01581 µM
  relative viability: 0.618
[14]; first compound 0.05 µM
  relative viability: 0.578
[14]; first compound 0.1581 µM
  relative viability: 0.348
[14]; first compound 0.5 µM
  relative viability: 0.19
[15]; first compound 0.005 µM
  relative viability: 0.379
[15]; first compound 0.01581 µM
  relative viability: 0.203
[15]; first compound 0.05 µM
  relative viability: 0.19
[15]; first compound 0.1581 µM
  relative viability: 0.13
[15]; first compound 0.5 µM
  relative viability: 0.129
[16]; first compound 0.005 µM
  relative viability: 0.737
[16]; first compound 0.01581 µM
  relative viability: 0.605
[16]; first compound 0.05 µM
  relative viability: 0.509
[16]; first compound 0.1581 µM
  relative viability: 0.396
[16]; first compound 0.5 µM
  relative viability: 0.336
[17]; first compound 0.005 µM
  relative viability: 0.545
[17]; first compound 0.01581 µM
  relative viability: 0.658
[17]; first compound 0.05 µM
  relative viability: 0.585
[17]; first compound 0.1581 µM
  relative viability: 0.389
[17]; first compound 0.5 µM
  relative viability: 0.304
[18]; first compound 0.005 µM
  relative viability: 0.773
[18]; first compound 0.01581 µM
  relative viability: 0.695
[18]; first compound 0.05 µM
  relative viability: 0.467
[18]; first compound 0.1581 µM
  relative viability: 0.469
[18]; first compound 0.5 µM
  relative viability: 0.351
[19]; first compound 0.005 µM
  relative viability: 0.285
[19]; first compound 0.01581 µM
  relative viability: 0.22
[19]; first compound 0.05 µM
  relative viability: 0.174
[19]; first compound 0.1581 µM
  relative viability: 0.0623
[19]; first compound 0.5 µM
  relative viability: 0.0624
[20]; first compound 0.005 µM
  relative viability: 0.659
[20]; first compound 0.01581 µM
  relative viability: 0.541
[20]; first compound 0.05 µM
  relative viability: 0.679
[20]; first compound 0.1581 µM
  relative viability: 0.542
[20]; first compound 0.5 µM
  relative viability: 0.566
[21]; first compound 0.005 µM
  relative viability: 0.886
[21]; first compound 0.01581 µM
  relative viability: 0.806
[21]; first compound 0.05 µM
  relative viability: 0.655
[21]; first compound 0.1581 µM
  relative viability: 0.459
[21]; first compound 0.5 µM
  relative viability: 0.277
[22]; first compound 0.005 µM
  relative viability: 0.472
[22]; first compound 0.01581 µM
  relative viability: 0.392
[22]; first compound 0.05 µM
  relative viability: 0.32
[22]; first compound 0.1581 µM
  relative viability: 0.284
[22]; first compound 0.5 µM
  relative viability: 0.235
